Test results reported in patent publication US10738042B2, “Phosphonamidates that are Bcl family antagonists for use in clinical management of conditions caused or mediated by senescent cells and for treating cancer” (Unity Biotechnology, priority 2018, dated 2020).

What was measured:
[1] = tested on: LDLR-/- mice fed a high fat diet; assay: Atherosclerosis model, Sudan IV staining of aortas for plaque; type: in vivo, mouse; conditions: HFD; 25 mg/kg intraperitoneally; timepoint 3 (week 12); FIG. 9
Method: (§1) Two groups of LDLR−/− mice (10 weeks) are fed a high fat diet (HFD) (Harlan Teklad TD.88137) having 42% calories from fat, beginning at Week 0 and throughout the study. Two groups of LDLR−/− mice (10 weeks) are fed normal chow (−HFD). From weeks 0-2, one group of HFD mice and −HFD mice are treated with Nutlin-3A (25 mg/kg, intraperitoneally). One treatment cycle is 14 days treatment, 14 days off. Vehicle is administered to one group of HFD mice and one group of −HFD mice. At week 4 (timepoint 1), one group of mice are sacrificed and to assess presence of senescent cells in the plaques. For the some of the remaining mice, Nutlin-3A and vehicle administration is repeated from weeks 4-6. At week 8 (timepoint 2), the mice are sacrificed and to assess presence of senescent cells in the plaques. The remaining mice are treated with Nutlin-3A or vehicle from weeks 8-10. At week 12 (timepoint 3), the mice are sacrificed and to assess the level of plaque and the number of senescent cells in the plaques.
(§2) At the end of timepoint 3, LDLR−/− mice fed a HFD and treated with Nutlin-3A or vehicle (n=3 for all groups) were sacrificed, and aortas were dissected and stained with Sudan IV to detect the presence of lipid. Body composition of the mice was analyzed by MRI, and circulating blood cells were counted by Hemavet™.

[2] = tested on: 3MR or INK-ATTAC mice exposed to cigarette smoke; assay: Cigarette smoke COPD model, oxygen saturation by pulse oximeter; type: in vivo, mouse; conditions: after two months of cigarette smoke exposure; FIG. 8
Excerpt: The mice used in this study include the 3MR strain, described in US 2017/0027139 A1 and in Demaria et al., Dev Cell. 2014 Dec. 22; 31(6): 722-733. The 3MR mouse has a transgene encoding thymidine kinase that converts the prodrug ganciclovir (GCV) to a compound that is lethal to cells. The enzyme in the transgene is placed under control of the p16 promoter, which causes it to be specifically expressed in senescent cells. Treatment of the mice with GCV eliminates senescent cells.
Other mice used in this study include the INK-ATTAC strain, described in US 2015/0296755 A1 and in Baker et al., Nature 2011 Nov. 2; 479(7372):232-236. The INK-ATTAC mouse has a transgene encoding switchable caspase 8 under control of the p16 promoter. The caspase 8 can be activated by treating the mice with the switch compound AP20187, whereupon the caspase 8 directly induces apoptosis in senescent cells, eliminating them from the mouse.
To conduct the experiment, six-week-old 3MR (n=35) or INK-ATTAC (n=35) mice were chronically exposed to cigarette smoke generated from a Teague TE-10 system, an automatically-controlled cigarette smoking machine that produces a combination of side-stream and mainstream cigarette smoke in a chamber, which is transported to a collecting and mixing chamber where varying amounts of air is mixed with the smoke mixture. The COPD protocol was adapted from the COPD core facility at Johns Hopkins University (Rangasamy et al., 2004, J. Clin. Invest. 114:1248-1259; Yao et al., 2012, J. Clin. Invest. 122:2032-2045).
Mice received a total of 6 hours of cigarette smoke exposure per day, 5 days a week for 6 months. Each lighted cigarette (3R4F research cigarettes containing 10.9 mg of total particulate matter (TPM), 9.4 mg of tar, and 0.726 mg of nicotine, and 11.9 mg carbon monoxide per cigarette [University of Kentucky, Lexington, Ky.]) was puffed for 2 seconds and once every minute for a total of 8 puffs, with the flow rate of 1.05 L/min, to provide a standard puff of 35 cm3. The smoke machine was adjusted to produce a mixture of side stream smoke (89%) and mainstream smoke (11%) by smoldering 2 cigarettes at one time. The smoke chamber atmosphere was monitored for total suspended particulates (80-120 mg/m3) and carbon monoxide (350 ppm). […]
After two months of cigarette smoke (CS) exposure, lung function was assessed by monitoring oxygen saturation using the MouseSTAT PhysioSuite™ pulse oximeter (Kent Scientific). […] Mice were monitored for 30 seconds and the average peripheral capillary oxygen saturation (SpO2) measurement over this duration was calculated.

[3] = tested on: C57BL/6J mice with ACL surgery-induced osteoarthritis; assay: Osteoarthritis model, weight bearing test; type: in vivo, mouse; conditions: 4 weeks post-surgery; FIG. 6A
Method: (§3) The model was implemented as follows. C57BL/6J mice underwent surgery to cut the anterior cruciate ligament of one rear limb to induce osteoarthritis in the joint of that limb. During week 3 and week 4 post-surgery, the mice were treated with 5.8 μg of Nutlin-3A (n=7) per operated knee by intra-articular injection, q.o.d. for 2 weeks. At the end of 4 weeks post-surgery, joints of the mice were monitored for presence of senescent cells, assessed for function, monitored for markers of inflammation, and underwent histological assessment.
Function of the limbs was assessed 4 weeks post-surgery by a weight bearing test to determine which leg the mice favored. The mice were allowed to acclimate to the chamber on at least three occasions prior to taking measurements. Mice were maneuvered inside the chamber to stand with one hind paw on each scale. The weight that was placed on each hind limb was measured over a three second period. At least three separate measurements were made for each animal at each time point. The results were expressed as the percentage of the weight placed on the operated limb versus the contralateral unoperated limb.

[4] = tested on: p16, IL-6, MMP13 expression in the operated joint; assay: Osteoarthritis model (ACL surgery), qRT-PCR of senescence markers and SASP factors in operated joints; type: in vivo, mouse; conditions: 5.8 μg per operated knee intra-articular, 4 weeks post-surgery
Method: as §3
Two control groups of mice were included in the studies performed: one group comprising C57BL/6J or 3MR mice that had undergone a sham surgery (n=3) (i.e., surgical procedures followed except for cutting the ACL) and intra-articular injections of vehicle parallel to the GCV (ganciclovir) treated group; and one group comprising C57BL/6J or 3MR mice that had undergone an ACL surgery and received intra-articular injections of vehicle (n=5) parallel to the GCV-treated group. RNA from the operated joints of mice from the Nutlin-3A treated mice was analyzed for expression of SASP factors (mmp3, IL-6) and senescence markers (p16). qRT-PCR was performed to detect mRNA levels.

[5] = tested on: LDLR-/- mice fed a high fat diet; assay: Atherosclerosis model, body composition (MRI) and circulating blood cell counts (Hemavet); type: in vivo, mouse; conditions: timepoint 3 (week 12)
Method: as §1, §2

[6] = tested on: SASP factors and senescent cell markers in the aortic arch; assay: Atherosclerosis model, RT-PCR of SASP factors and senescent cell markers in aortic arches; type: in vivo, mouse; conditions: HFD, 25 mg/kg intraperitoneally
Method: as §1, with “At week 8 (timepoint 2), the mice are sacrificed and to assess presence of senescent cells in the plaques. The remaining mice are treated with Nutlin-3A or vehicle from weeks 8-10. At week 12 (timepoint 3), the mice are sacrificed and to assess the level of plaque and the number of senescent cells in the plaques.” left out
At the end of timepoint 1, LDLR−/− mice fed a HFD and treated with Nutlin-3A or vehicle were sacrificed (n=3, all groups), and the aortic arches were dissected for RT-PCR analysis of SASP factors and senescent cell markers. Values were normalized to GAPDH and expressed as fold-change versus age-matched, vehicle-treated LDLR−/− mice on a normal diet.
At the end of timepoint 2, LDLR−/− mice fed a HFD and treated with Nutlin-3A or vehicle (n=3 for all groups) were sacrificed, and aortic arches were dissected for RT-PCR analysis of SASP factors and senescent cell markers. Values were normalized to GAPDH and expressed as fold-change versus age-matched, vehicle-treated LDLR−/− mice on a normal diet.

[7] = tested on: C57BL/6J mice with ACL surgery-induced osteoarthritis; assay: Osteoarthritis model, histopathology of joint tissue; type: in vivo, mouse; conditions: FIGS. 6B-6D
Method: as §3

[8] = tested on: cancer cells in human patients; conditions: cited from earlier work

## COc1ccc(C2=N[C@@H](c3ccc(Cl)cc3)[C@@H](c3ccc(Cl)cc3)N2C(=O)N2CCNC(=O)C2)c(OC(C)C)c1 [Nutlin-3A]
[1]
  reduction of surface area covered by plaques in the descending aorta: about 45%
[2]
  SpO2 levels compared with untreated controls: statistically significant increases
[3]
  weight bearing: favoring of the unoperated hind limb over the operated hind limb: abrogated this effect
[4]; q.o.d. for 2 weeks, FIG. 5A
  expression of p16 in the tissue: reduced the expression back to below the level of the controls
[4]; q.o.d. for 2 weeks, FIG. 5B
  expression of IL-6 in the tissue: reduced the expression back to below the level of the controls
[4]; q.o.d. for 2 weeks, FIG. 5C
  expression of MMP13 in the tissue: reduced the expression back to below the level of the controls
[4]
  senescent cells in the joint: cleared senescent cells from the joint
[5]
  lymphocyte counts versus vehicle treated mice: equivalent
  platelet counts versus vehicle treated mice: equivalent
[6]; after one treatment cycle (timepoint 1, week 4)
  expression of SASP factors and senescent cell markers MMP3, MMP13, PAI1, p21, IGFBP2, IL-1A, IL-1B: reduced expression
[6]; multiple treatment cycles (timepoint 2, week 8)
  expression of SASP factors and senescent cell markers in the aortic arch: reduced expression of most markers
[7]
  destruction of the proteoglycan layer (histopathology): completely abrogated this effect

## CC[C@H](C(=O)N1CCCC[C@H]1C(=O)O[C@H](CCc1ccc(OC)c(OC)c1)c1cccc(OCC(=O)NCC(CNC(=O)COc2cccc([C@@H](CCc3ccc(OC)c(OC)c3)OC(=O)[C@@H]3CCCCN3C(=O)[C@@H](CC)c3cc(OC)c(OC)c(OC)c3)c2)CN(C)C)c1)c1cc(OC)c(OC)c(OC)c1 [AP2018]
[2]
  SpO2 levels compared with untreated controls: statistically significant increases

## CN(C)CC[C@H](CSc1ccccc1)Nc1ccc(S(=O)(=O)NC(=O)c2ccc(N3CCN(Cc4ccccc4-c4ccc(Cl)cc4)CC3)cc2)cc1[N+](=O)[O-] [ABT-737]
[8]
  effect against cancer cells in human patients: effective against some types of cancer cells

## Nc1nc(O)c2ncn(COC(CO)CO)c2n1 [ganciclovir]
[2]
  SpO2 levels compared with untreated controls: statistically significant increases

## CC1(C)CCC(c2ccc(Cl)cc2)=C(CN2CCN(c3ccc(C(=O)NS(=O)(=O)c4ccc(N[C@H](CCN5CCOCC5)CSc5ccccc5)c(S(=O)(=O)C(F)(F)F)c4)cc3)CC2)C1 [ABT-263]
[2]
  SpO2 levels compared with untreated controls: statistically significant increases
